Data as given in patent US8658668B2, “PI3 kinase/mTOR dual inhibitor” (Eli Lilly and Company, priority 2011, dated 2014).

Columns and labels:
[1] = tested on: human renal carcinoma cells 786-O; assay: Xenograft tumor model, 786-O; type: in vivo, mouse; settings: oral gavage
Procedure: (§1) Expand human glioblastoma cells U87MG and human renal carcinoma cells 786-O, in culture, harvest and inject subcutaneously onto the rear flank of athymic nude mice. Expand human non-small cell lung cancer cells NCI-H1975 in culture, harvest and inject subcutaneously onto the rear flank of CD-1 nu/nu mice. Prepare test compound in an appropriate vehicle and administer by oral gavage when tumors are established (7-21 days after implant). Tumor response is determined by tumor volume measurement performed twice a week during the course of treatment. Body weight is taken as a general measurement of toxicity.

[2] = tested on: RXF 1220 human tumor xenograft cells; assay: Oncotest tumor clonogenic assay, RXF 1220; type: cell-based; settings: colony formation, Renal RXF 1220, hypernephroma, pd, read-out: Absolute IC50
P70S6(pT389) = assay: AlphaScreen SureFire p-p70S6 kinase (Thr389) in U87MG cells; type: cell-based; settings: Homo sapiens, U-87 MG, 1 h, n = 4, read-out: P70S6(pT389) Absolute IC50
Procedure: This homogeneous assay format uses immuno-sandwich capture of the phosphorylated analyte and then detection with antibody-coated Alphascreen beads to generate an amplified signal.
Maintain U87MG cells in U87MG growth medium consisting of DMEM (GIBCO 11965-092) supplemented with 10% fetal bovine serum (FBS, GIBCO, 10091-141), 1% nonessential amino acids (GIBCO, 11140-050) and 1% sodium pyruvate (GIBCO, 11360-070). Harvest cells using standard cell culture procedures and then count using Vi-Cell. Plate 100 μL of U87MG cells in growth medium (50,000 cells/well) into Costar #3596 96 well plates and incubate overnight at 37° C., 5% CO2.
Incubate for one h at 37° C., then remove the medium and add 50 μL of 1× SureFire Lysis Buffer (TGR Biosciences SureFire® Kit component) to each well and incubate at room temperature for 10 min with gentle shaking Transfer 6 μL lysate and 10 μL reaction mixture (60 parts reaction buffer/10 parts activation buffer/1 part each of donor and acceptor beads, Perkin Elmer, 6760617R) to a 384 well proxiplate (Perkin Elmer, 6006280) for the p-p70S6 kinase (Thr389) and p-AKT(Ser473) assays. Seal the plate and incubate at RT for 4 h. […] Read the plates on a Perkin Elmer EnVision equipped with a TurboModule using standard AlphaScreen® settings (Ex680 nm and Em520-620 nm). […]

[3] = tested on: LXFA 983 human tumor xenograft cells; assay: Oncotest tumor clonogenic assay, LXFA 983; type: cell-based; settings: colony formation, NSCLC LXFA 983, adeno carcinoma, pd, read-out: Absolute IC50
[4] = tested on: RXF 486 human tumor xenograft cells; assay: Oncotest tumor clonogenic assay, RXF 486; type: cell-based; settings: colony formation, Renal RXF 486, hypernephroid adeno carcinoma, clear cell, read-out: Absolute IC50
[5] = tested on: GXF 209 human tumor xenograft cells; assay: Oncotest tumor clonogenic assay, GXF 209; type: cell-based; settings: colony formation, Gastric GXF 209, signet-ring cell carcinoma, ud, read-out: Absolute IC50
DNA-PK = DNA-PK (Homo sapiens, UniProt P78527); assay: DNA-PK Z'LYTE in vitro enzyme assay; type: biochemical; settings: 25.0 micromolar ATP; read-out: absolute IC50
Description: Use the Z'LYTE® kinase assay format (Invitrogen) to determine IC50 values against DNA-PK for a compound. This is a fluorescence based, coupled enzyme assay format based on sensitivity of phosphorylated vs. nonphosphorylated dual labeled peptide substrate (Coumerin on amino terminus, Fluorescein on carboxy terminus) to proteolysis. Use the Fluorescence Resonance Energy Transfer (FRET) ratio to monitor DNA-PK activity where phosphorylation of the peptide protects the peptide from proteolytic cleavage and the FRET of the substrate is maintained. Perform the kinase reaction using 10 microliter reaction volume in a Corning®, low volume NBS, black 384 well plate (Corning® #3676). […] Read the plate on a fluorescence plate reader with 400 nm wavelength excitation filter and emission filters of 445 and 520 nm Use the signal measured with 445 nm filter (specific to Coumarin) over the signal measured with 520 filter (specific to fluorescein) to calculate the FRET ratio. […]

[6] = tested on: LXFA 1584 human tumor xenograft cells; assay: Oncotest tumor clonogenic assay, LXFA 1584; type: cell-based; settings: colony formation, NSCLC LXFA 1584, adeno carcinoma, pd, read-out: Absolute IC50
[7] = tested on: MAXF 401 human tumor xenograft cells; assay: Oncotest tumor clonogenic assay, MAXF 401; type: cell-based; settings: MAXF401, colony formation, Mammary MAXF 401, pap. adeno carcinoma, wd, read-out: Absolute IC50
[8] = tested on: BXF 1228 human tumor xenograft cells; assay: Oncotest tumor clonogenic assay, BXF 1228; type: cell-based; settings: colony formation, Bladder BXF 1228, transitional cell carcinoma, wd, read-out: Absolute IC50
[9] = tested on: LXFL 529 human tumor xenograft cells; assay: Oncotest tumor clonogenic assay, LXFL 529; type: cell-based; settings: colony formation, NSCLC LXFL 529, large cell lung carcinoma, pd, read-out: Absolute IC50
[10] = tested on: human non-small cell lung cancer cells NCI-H1975; assay: Xenograft tumor model, NCI-H1975; type: in vivo, mouse; settings: oral gavage
Procedure: as §1

In the case of CO[C@@H](C)Cn1c(=O)n(C)c2cnc3ccc(-c4cncc(C(C)(C)O)c4)cc3c21 [Example 1, 8-[5-(1-Hydroxy-1-methylethyl)pyridin-3-yl]-1-[(2S)-2-methoxypropyl]-3-methyl-1,3-dihydro-2H-imidazo[4,5-c]quinolin-2-one], the “% TGI” value ([1]; 3 mg/kg BID) is reported as 33.9%, the “% TGI” value ([1]; 6 mg/kg BID) is reported as 56.9% and the “% TGI” value ([1]; 10 mg/kg BID) is reported as 70.2%. For the same compound, the IC50 [2] was 191 nM, the IC50 (P70S6(pT389)) was 10.6 nM and the IC50 [3] was 103 nM. For the same compound, the IC50 [4] was 112 nM, the IC50 [5] was 184 nM and the IC50 (DNA-PK) was 4.24 nM. For the same compound, the IC50 [6] was 85 nM, the IC50 [7] was 150 nM and the IC50 [8] was 31 nM. For the same compound, the IC50 [9] was 128 nM, the “% TGI” value ([10]; H1975, 3 mg/kg BID) was 13.8% and the “% TGI” value ([10]; H1975, 6 mg/kg BID) was 26.9%. The “% TGI” value ([10]; H1975, 10 mg/kg BID) was 62.7%.
